Data reported in patent publication US12527768B2, “Compositions comprising an anti-inflammatory drug and a dicer activator for use in the treatment of neuronal diseases” (NeuroSense Therapeutics Ltd., priority 2017, dated 2026).
Values joined by “and” are separate entries in the source; they are usually repeats but may differ in a detail not shown here. Equal values may be shown once. “Also recorded” adds a separate entry of the source.

What was measured:
[1] = system: chronic electrode-implanted rats; conditions: cited from earlier work; for EEG and behavior after intraventricular injection: relatively high dose
[2] = system: SOD1 G93R mutant zebrafish larvae; experiment: Behavioral analysis (DanioVision): locomotor activity, distance moved; type: in vivo, zebrafish (Danio rerio); conditions: for distance moved, elevation compared to non-treated SOD1 mutant, whole period of measurement: 6 dpf larvae; for distance moved compared to non-treated SOD1 mutant, whole experiment: 10 μM in swimming water; for effect on locomotor activity during all three experimental phases: spontaneous swimming, light/dark challenge, recovery from challenge
Description: (§1) Treatment protocol SOD1 G93R mutant or WT fish were collected and raised according to accepted and approved protocols, see Westerfield M. The Zebrafish Book: a Guide for the Laboratory Use of Zebrafish (Danio rerio) 2000, incorporated herein as reference. Larvae's morphology was observed (heart rate, overall morphology and behavior) at each day.
Two-hundred and forty (240) larvae were selected from the same laying batch to be introduced to three distinct treatments and a control (n=60 per each treatment). First and second treatments were conducted at 3 and 5 days post fertilization (dpf), respectively, when the blood brain barrier (BBB) is fully closed, and the motor neurons (MNs) and neuromuscular junctions (NMJs) are fully developed. The materials were administrated in the swimming water (DB). At day 6, larvae were taken to behavioral analysis using the automated DanioVision™ system. Following analysis, larvae were fixed and whole-mount immunohistochemistry procedure was conducted to be used for high resolution morphological analysis. Treatment protocol is detailed in FIG. 1.
Behavioral analysis DanioVision™, an automated high-throughput tracking system of zebrafish larvae from Noldus Information Technology (Wageningen, the Netherlands), including control of light and dark conditions was used for the measurements and analysis of the results. Each single larvae was put in a single well, with the same volume of swimming water to ensure uniform background. Each animal was tested for its x,y position using dynamic subtraction 30 times per second. The distance each larvae moved in mm was calculated from the x,y position and averaged per time bin of 1 minute (average of 1800 measurements per each 1 minute). The behavioral profile was measured in 3 phases according to changes in environment that we applied, to introduce additional muscle and neurological stress. Spontaneous swimming, light/dark challenge (opto-kinetic response) and recovery from challenge behaviors were recorded and analyzed. All animals from the same treatment: wild type (WT), SOD1 mutant non-treated or treated were averaged per time bin of 1 minute to examine their reaction to additional stress, and then calculated for the whole period of time to get a relative number compared to the non-treated SOD1 mutant swimming behavior. Statistical analysis used was paired Student's t-tests (two-tailed) with two-sample assuming unequal variances. All P-values reported are two-tailed and the significance level was set at 0.05 (*), 0.01 to 0.001 (**) and below 0.001 (***).

[3] = system: SOD1 G93R mutant zebrafish larvae; experiment: Toxicity analysis of larvae (morphology, cardiovascular system, behavior, mortality); type: in vivo, zebrafish (Danio rerio)
Experimental: as §1
Toxicity analysis Fish were observed during the day of administration and the following days to observe toxicity. Acute toxicity was evaluated for apoptosis/necrosis and cardiovascular system abnormalities (heart rate, morphology, hemorrhage and edema). Head, eyes and overall morphological and behavioral toxicity were recorded according to accepted procedures^28.

[4] = system: cytochrome P450 (CYP450) 2C9 and 3A4; conditions: cited from earlier work
[5] = system: Pseudomonas aeruginosa; conditions: cited from earlier work
[6] = system: RNAi; conditions: cited from earlier work
[7] = system: ALS mouse models; conditions: enhancement of DICER activity; cited from earlier work
[8] = system: inhibitory interneurons of SOD1 mutants; conditions: 1 μM; cited from earlier work
[9] = system: ALS patients; conditions: clinical trial; cited from earlier work
[10] = 100 μM in swimming water, 0.1% DMSO
[11] = 100 μM, recovery from challenge phase
[12] = 100 μM, spontaneous swimming phase

SMILES: CC(=O)Oc1ccccc1C(=O)O.NCCCCC(N)C(=O)O (racemic) [aspirin DL-lysine]
- EEG and behavior after intraventricular injection [1]: spike and wave complex in EEG without showing remarkable behavioral changes

SMILES: Cc1ccc(-c2cc(C(F)(F)F)nn2-c2ccc(S(N)(=O)=O)cc2)cc1 [Celecoxib]
- distance moved, elevation compared to non-treated SOD1 mutant, whole period of measurement ([2]; 1 μM in swimming water): 6%
- locomotor effect of Celecoxib at 5 μM ([2]; 5 μM, 0.1% DMSO background): subtle locomotor decline; also recorded: reduction in locomotor ability
- locomotor effect of Celecoxib at 10 μM ([2]; 10 μM, 0.3% DMSO background): subtle locomotor decline; also recorded: Subtle locomotor reduction
- toxicity at high concentration ([3]; 30 μM, 0.3% DMSO, SOD1 mutants and WT): cardiovascular toxicity and death
- toxicity at lower concentrations ([3]; below 10 μM (0.3% DMSO) / 5 μM (0.1% DMSO)): no toxicity was evident
- metabolism in vivo [4]: oxidized by cytochrome P450 (CYP450) 2C9 and 3A4 to the inactive metabolite hydroxycelecoxib

SMILES: O=C(O)c1cn(C2CC2)c2cc(N3CCNCC3)c(F)cc2c1=O [Ciprofloxacin]
- potency against Pseudomonas aeruginosa among quinolones [5]: most potent quinolone
- RNAi-enhancing activity [6]: substantial RNAi-enhancing activity
- distance moved compared to non-treated SOD1 mutant, whole experiment ([2]; 0.1% DMSO): did not significantly affect locomotor activity; also recorded: not changed
- effect on locomotor activity during all three experimental phases ([2]; 10 μM): nearly no effect
- locomotor activity of Ciprofloxacin compared to Enoxacin treatment ([2]; 100 μM each, spontaneous swimming and recovery from challenge): elevated locomotor activity compared to Enoxacin treatment
- distance moved, elevation compared to non-treated SOD1 mutant, whole period of measurement [2, 10]: 18% and 17.8%
- locomotor activity, increase vs non-treated SOD1 mutant, recovery from challenge [2, 11]: 33.5%
- locomotor activity, increase vs non-treated SOD1 mutant, spontaneous swimming [2, 12]: 26.2%
- effect on locomotor activity under dark conditions ([2]; 1, 10, 50, 100, 200 and 500 μM): nearly no effect
- locomotor activity in the phase of recovery from stress, dose response ([2]; 50, 100, 200 and 500 μM, second phase of light): dose dependent curve that eventually ended in a plateau
- effect on spontaneous swimming at high concentrations ([2]; 200 and 500 μM, spontaneous swimming phase): did not cause elevation in spontaneous swimming
- most potent concentration in affecting locomotor activity ([2]; tested 1-500 μM): 100 µM

SMILES: CCn1cc(C(=O)O)c(=O)c2cc(F)c(N3CCNCC3)nc21 [Enoxacin]
- distance moved compared to non-treated SOD1 mutant, whole experiment ([2]; 0.1% DMSO): not changed
- effect on locomotor activity during all three experimental phases ([2]; 10 μM): nearly no effect
- distance moved, elevation compared to non-treated SOD1 mutant, whole period of measurement [2, 10]: 20%
- distance moved, elevation compared to non-treated SOD1 mutant, whole period of measurement ([2]; 100 μM in swimming water, 0.1% DMSO, listed as enoxacin): 19.9%
- locomotor activity, increase vs non-treated SOD1 mutant, light/dark challenge ([2]; 100 μM, light/dark challenge phase): 21%
- locomotor activity, increase vs non-treated SOD1 mutant, recovery from challenge [2, 11]: 17.6%
- locomotor activity, increase vs non-treated SOD1 mutant, spontaneous swimming [2, 12]: 20.1%
- epileptogenic activity, EEG ([1]; intraventricular, 50 and 100 micrograms): potent epileptogenic activity
- effect in two independent ALS mouse models [7]: beneficial in vivo
- drug induced effects in morphology or mortality ([3]; Enoxacin 10 μM and 100 μM, 0.1% DMSO): no drug induced effects in morphology or mortality were observed

SMILES: CCOC(=O)Cc1ccc(-c2ccccc2)cc1 [Ferubinac ethyl]
- EEG and behavior after intraventricular injection [1]: spike and wave complex in EEG without showing remarkable behavioral changes

SMILES: Nc1nc2ccc(OC(F)(F)F)cc2s1 [Riluzole]
- neuronal stress in inhibitory interneurons [8]: reduced
- effect on ALS disease progression [9]: modestly slowed ALS progression
- distance moved, elevation compared to non-treated SOD1 mutant, whole period of measurement ([2]; 1 μM in swimming water): 36% and 36.8%
- locomotor activity, increase vs non-treated SOD1 mutant, light/dark challenge ([2]; 1 μM, light/dark challenge phase (10-20 min)): 32%
- locomotor activity, increase vs non-treated SOD1 mutant, recovery from challenge ([2]; 1 μM, recovery from challenge phase (last 10 minutes)): 39.7%
- locomotor activity, increase vs non-treated SOD1 mutant, spontaneous swimming ([2]; 1 μM, spontaneous swimming phase (0-10 min)): 38%
